ChEMBL document CHEMBL1201862, “PubChem BioAssay data set” (2004)
Active and inactive are the calls of the source.

Columns and labels:
[1] = target: T1, Type-1 angiotensin II receptor (Homo sapiens, UniProt P30556); assay: AT1 receptor agonists, dose response, selectivity assay for APJ receptor agonist project, cell-based, uHTS hits (AID 488865); type: functional;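 further: beta-arrestin recruitment to AT1 measured by enzyme fragment complementation luminescence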
T1 sequence (P30556 whole entry): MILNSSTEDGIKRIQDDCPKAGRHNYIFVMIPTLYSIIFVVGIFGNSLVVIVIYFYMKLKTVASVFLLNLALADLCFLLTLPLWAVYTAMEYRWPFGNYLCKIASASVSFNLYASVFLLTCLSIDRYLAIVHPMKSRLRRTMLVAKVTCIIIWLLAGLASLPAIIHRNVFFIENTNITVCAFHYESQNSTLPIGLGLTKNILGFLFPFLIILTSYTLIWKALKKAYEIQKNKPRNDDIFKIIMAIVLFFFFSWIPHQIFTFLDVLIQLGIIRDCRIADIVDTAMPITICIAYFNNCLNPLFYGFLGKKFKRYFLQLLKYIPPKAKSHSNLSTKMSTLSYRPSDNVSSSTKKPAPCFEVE

[2] = target: T2, Tyrosine-protein phosphatase non-receptor type 7 (Homo sapiens, UniProt P35236); assay: SAR analysis of chemical inhibitors of HePTP using a Fluorescent assay - Set 2. [Related pubchem assays (depositor defined):AID1059, AID1077, AID1661, AID2085, AID521]; type: functional
T2 sequence (P35236 whole entry): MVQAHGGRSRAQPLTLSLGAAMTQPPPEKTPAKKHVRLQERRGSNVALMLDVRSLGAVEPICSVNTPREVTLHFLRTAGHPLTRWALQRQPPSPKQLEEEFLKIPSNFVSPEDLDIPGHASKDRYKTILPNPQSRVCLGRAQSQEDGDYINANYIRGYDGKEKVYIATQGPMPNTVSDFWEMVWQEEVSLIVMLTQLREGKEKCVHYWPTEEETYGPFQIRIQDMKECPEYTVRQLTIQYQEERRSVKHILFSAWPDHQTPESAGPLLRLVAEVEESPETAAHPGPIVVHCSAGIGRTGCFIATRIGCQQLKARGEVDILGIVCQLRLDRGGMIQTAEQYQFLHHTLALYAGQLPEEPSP

[3] = target: Dual specificity protein phosphatase 3 (Homo sapiens, UniProt P51452); assay: SAR VHR1 Fluorescent Assay for In Vitro dose response studies Set 2. [Related pubchem assays (depositor defined):AID1654, AID1661, AID1878]; type: functional
[4] = test system: T-cell; assay: inhibitors of CD8+ T cell–vesicle binding, dose response, mouse 2C CD8+ T cells, flow cytometry (AID 485284); type: functional
[5] = target: T3, Kappa-type opioid receptor (Homo sapiens, UniProt P41145); assay: SAR analysis of small molecule antagonists of the kappa opioid receptor via a luminescent beta-arrestin assay - Set 3. [Related pubchem assays (depositor defined):AID1777, AID1778, AID1785, AID1786, AID1966, AID2133, AID2136, AID2285, AID2495]; type: functional
[6] = target: Mu-type opioid receptor (Homo sapiens, UniProt P35372); assay: SAR Analysis of Antagonists of the MOR Receptor using an Image-Based Assay - Set 3. [Related pubchem assays (depositor defined):AID1777, AID1785, AID1786, AID1966, AID2133, AID2136, AID2284, AID2285, AID2420]; type: functional
[7] = target: T3, Kappa-type opioid receptor; assay: SAR analysis of Antagonists of the Kappa Opioid Receptor (KOR) using an Image-Based Assay - Set 3. [Related pubchem assays (depositor defined):AID1777, AID1785]; type: functional
[8] = target: Delta-type opioid receptor (Homo sapiens, UniProt P41143); assay: SAR Analysis of Antagonists of the DOR Receptor using an Image-Based Assay - Set 3. [Related pubchem assays (depositor defined):AID1777, AID1785]; type: functional;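 further: U2OS cells expressing DOR1 and beta-arrestin GFP stimulated with 100 nM SNC80; imaging of GFP-tagged beta-arrestin moving into spots after receptor activation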
[9] = test system: Streptococcus sp. 'group A'; assay: growth inhibition of control SK(-) GAS strain, dose response, counter-screen for streptokinase expression inhibitor project, luminescence, kanamycin, BacTiterGlo, confirmation (AID 1900); type: functional, organism-based
[10] = test system: Streptococcus; assay: Group A Streptococcus viability loss, dose response, counter-screen for streptokinase expression inhibitor project, luminescence, BacTiterGlo (AID 1915); type: functional, organism-based;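 further: potency for reduction of bacterial viability or growth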
[11] = target: T4, Short transient receptor potential channel 4 (Mus musculus, UniProt Q9QUQ5); assay: TRPC4 positive allosteric modulators, dose response, cell-based, HEK293 TRPC4/mu-opioid, Fluo-4 calcium, EC20 DAMGO (AID 434941); type: functional
T4 sequence (Q9QUQ5 whole entry): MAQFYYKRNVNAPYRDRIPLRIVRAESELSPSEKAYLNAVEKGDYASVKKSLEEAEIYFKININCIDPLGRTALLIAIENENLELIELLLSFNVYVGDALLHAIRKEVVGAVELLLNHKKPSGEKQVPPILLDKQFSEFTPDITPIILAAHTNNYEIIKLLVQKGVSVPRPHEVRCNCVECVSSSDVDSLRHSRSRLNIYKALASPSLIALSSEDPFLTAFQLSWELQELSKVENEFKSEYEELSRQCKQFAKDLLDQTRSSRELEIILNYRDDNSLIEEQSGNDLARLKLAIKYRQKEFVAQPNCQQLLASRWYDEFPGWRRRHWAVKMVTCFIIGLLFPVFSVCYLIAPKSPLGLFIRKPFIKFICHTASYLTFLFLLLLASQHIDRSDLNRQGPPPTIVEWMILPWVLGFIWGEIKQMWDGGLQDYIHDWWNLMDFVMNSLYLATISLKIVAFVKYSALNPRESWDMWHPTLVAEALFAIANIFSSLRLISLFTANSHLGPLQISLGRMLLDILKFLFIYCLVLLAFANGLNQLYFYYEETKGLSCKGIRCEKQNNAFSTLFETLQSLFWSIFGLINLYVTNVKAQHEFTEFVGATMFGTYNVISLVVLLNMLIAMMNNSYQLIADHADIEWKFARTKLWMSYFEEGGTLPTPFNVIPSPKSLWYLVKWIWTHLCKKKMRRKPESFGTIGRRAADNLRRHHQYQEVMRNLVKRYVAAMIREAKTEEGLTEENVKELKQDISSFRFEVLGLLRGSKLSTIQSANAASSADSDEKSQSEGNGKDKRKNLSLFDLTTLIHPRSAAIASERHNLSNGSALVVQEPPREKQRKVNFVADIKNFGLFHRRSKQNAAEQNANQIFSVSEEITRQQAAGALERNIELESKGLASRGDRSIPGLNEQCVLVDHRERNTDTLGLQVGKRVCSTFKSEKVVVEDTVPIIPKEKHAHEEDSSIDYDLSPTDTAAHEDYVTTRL

[12] = target: T4, Short transient receptor potential channel 4; assay: mouse TRPC4 channel activators, dose response, cell-based, HEK293 TRPC4/mu-opioid, Fluo-4 calcium (AID 434937); type: functional
[13] = target: T5, Streptokinase A (Streptococcus pyogenes serotype M1, UniProt P10520); assay: S. pyogenes streptokinase expression inhibitors, potency, dose response, plasminogen activation absorbance, OD405 (AID 1914); type: functional, Streptococcus pyogenes M1 GAS;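 further: secreted streptokinase activity via plasminogen activation per viability signal from cell pellet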
T5 sequence (P10520 whole entry): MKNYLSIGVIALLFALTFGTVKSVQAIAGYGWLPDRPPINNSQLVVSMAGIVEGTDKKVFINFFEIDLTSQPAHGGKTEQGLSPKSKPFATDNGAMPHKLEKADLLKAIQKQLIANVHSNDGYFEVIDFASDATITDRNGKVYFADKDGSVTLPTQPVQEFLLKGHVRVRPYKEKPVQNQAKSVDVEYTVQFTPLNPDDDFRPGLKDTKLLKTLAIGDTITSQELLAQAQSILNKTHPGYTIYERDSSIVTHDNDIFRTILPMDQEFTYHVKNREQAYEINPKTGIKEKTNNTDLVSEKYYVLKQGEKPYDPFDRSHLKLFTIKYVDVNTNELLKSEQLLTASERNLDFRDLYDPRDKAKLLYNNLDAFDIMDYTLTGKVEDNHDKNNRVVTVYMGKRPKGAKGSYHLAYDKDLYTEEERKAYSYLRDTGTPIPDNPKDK

[14] = target: T6, Protein skinhead-1 (Caenorhabditis elegans, UniProt P34707); type: functional
T6 sequence (P34707 whole entry): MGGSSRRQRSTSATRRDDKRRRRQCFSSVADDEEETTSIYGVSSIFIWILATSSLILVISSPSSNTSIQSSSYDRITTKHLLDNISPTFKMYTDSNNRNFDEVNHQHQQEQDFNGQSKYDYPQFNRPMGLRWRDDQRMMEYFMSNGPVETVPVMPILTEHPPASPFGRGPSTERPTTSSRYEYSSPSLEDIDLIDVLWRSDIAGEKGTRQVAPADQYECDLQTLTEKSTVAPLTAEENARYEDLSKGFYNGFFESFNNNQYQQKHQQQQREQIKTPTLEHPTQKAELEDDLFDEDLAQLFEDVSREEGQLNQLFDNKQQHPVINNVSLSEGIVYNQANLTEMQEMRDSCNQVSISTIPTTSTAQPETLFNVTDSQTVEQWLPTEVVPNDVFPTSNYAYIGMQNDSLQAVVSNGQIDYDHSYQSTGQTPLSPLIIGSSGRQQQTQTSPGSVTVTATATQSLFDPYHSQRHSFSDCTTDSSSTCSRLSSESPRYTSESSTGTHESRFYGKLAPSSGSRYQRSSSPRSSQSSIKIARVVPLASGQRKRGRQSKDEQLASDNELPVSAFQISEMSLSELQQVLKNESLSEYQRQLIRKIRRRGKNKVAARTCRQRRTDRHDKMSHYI

[15] = microbe, parasite or virus in culture; type: functional; conditions: Mycobacterium tuberculosis
[16] = target: DNA dC->dU-editing enzyme APOBEC-3A (Homo sapiens, UniProt P31941); assay: Dose Response confirmation of small molecule APOBEC3A DNA Deaminase Inhibitors via a fluorescence-based single-stranded DNA deaminase assay. [Related pubchem assays (depositor defined):AID493011, AID493024]; type: functional
[17] = test system: BJ; assay: cells; type: functional, cell-based; conditions: Homo sapiens
[18] = target: DNA dC->dU-editing enzyme APOBEC-3G (Homo sapiens, UniProt Q9HC16); type: functional;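 further: Dose-response counterscreen measuring inhibition of APOBEC3G DNA deaminase activity, run while confirming APOBEC3A inhibitors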
[19] = cytotoxicity in HEK-293T cells, dose response, cytotoxicity control for TCR NF-kB inhibitor project, luminescence, T-cell screen hits (AID 489026); type: functional, cell-based;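 further: cells exposed to compound about 14 hours before the viability readout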
[20] = target: FAD-linked sulfhydryl oxidase ALR (Homo sapiens, UniProt P55789); assay: inhibitors of human ALR sulfhydryl oxidase, dose response, biochemical, H2O2 detection, luminescence, cherry-pick (AID 493248)
[21] = cytotoxicity toward DRD oncogenic fibroblasts, dose response, cell-based, non-viral oncogenic, luminescence (AID 1934); type: functional; conditions: Homo sapiens
[22] = test system: BJ; assay: cytotoxicity toward BJ-TERT fibroblasts, dose response, cell-based, RAS-independent, luminescence (AID 1933); type: functional; conditions: Homo sapiens
[23] = test system: BJ; assay: cytotoxicity toward BJ-TERT-LT-ST fibroblasts, dose response, cell-based, RAS-independent, luminescence (AID 1935); type: functional; conditions: Homo sapiens;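 further: BJ fibroblasts immortalized with TERT plus LT and ST oncogenes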
[24] = target: T7, Coagulation factor XII (Homo sapiens, UniProt P00748); assay: FXIIa inhibitor potency, concentration-response, biochemical (AID 716); type: functional
T7 sequence (P00748 whole entry): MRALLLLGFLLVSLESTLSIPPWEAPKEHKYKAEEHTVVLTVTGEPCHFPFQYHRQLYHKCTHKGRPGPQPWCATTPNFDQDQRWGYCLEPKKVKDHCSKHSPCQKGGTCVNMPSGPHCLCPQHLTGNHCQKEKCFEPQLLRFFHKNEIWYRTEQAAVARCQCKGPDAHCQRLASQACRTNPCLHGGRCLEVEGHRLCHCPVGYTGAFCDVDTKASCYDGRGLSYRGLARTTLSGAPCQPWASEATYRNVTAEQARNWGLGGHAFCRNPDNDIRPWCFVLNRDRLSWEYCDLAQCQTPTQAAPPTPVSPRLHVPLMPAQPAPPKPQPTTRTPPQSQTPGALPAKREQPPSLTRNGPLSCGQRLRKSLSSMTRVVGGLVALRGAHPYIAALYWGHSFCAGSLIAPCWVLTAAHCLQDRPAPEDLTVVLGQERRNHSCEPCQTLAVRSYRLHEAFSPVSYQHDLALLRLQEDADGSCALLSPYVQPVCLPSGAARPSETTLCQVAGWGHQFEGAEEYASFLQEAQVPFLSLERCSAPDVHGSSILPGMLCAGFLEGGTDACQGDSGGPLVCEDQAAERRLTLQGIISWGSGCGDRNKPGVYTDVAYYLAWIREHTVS

T3 sequence (P41145 whole entry): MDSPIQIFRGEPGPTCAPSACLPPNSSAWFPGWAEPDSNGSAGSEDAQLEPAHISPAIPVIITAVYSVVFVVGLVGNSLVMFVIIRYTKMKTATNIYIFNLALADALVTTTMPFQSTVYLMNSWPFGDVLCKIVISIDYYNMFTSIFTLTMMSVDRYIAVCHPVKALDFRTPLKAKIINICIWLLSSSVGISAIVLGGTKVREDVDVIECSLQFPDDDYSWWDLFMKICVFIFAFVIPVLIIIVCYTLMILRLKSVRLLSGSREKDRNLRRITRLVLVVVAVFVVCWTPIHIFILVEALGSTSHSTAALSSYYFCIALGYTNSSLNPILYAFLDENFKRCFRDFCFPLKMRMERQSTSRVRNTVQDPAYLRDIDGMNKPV
Sequence of DNA dC->dU-editing enzyme APOBEC-3G (Q9HC16 whole entry): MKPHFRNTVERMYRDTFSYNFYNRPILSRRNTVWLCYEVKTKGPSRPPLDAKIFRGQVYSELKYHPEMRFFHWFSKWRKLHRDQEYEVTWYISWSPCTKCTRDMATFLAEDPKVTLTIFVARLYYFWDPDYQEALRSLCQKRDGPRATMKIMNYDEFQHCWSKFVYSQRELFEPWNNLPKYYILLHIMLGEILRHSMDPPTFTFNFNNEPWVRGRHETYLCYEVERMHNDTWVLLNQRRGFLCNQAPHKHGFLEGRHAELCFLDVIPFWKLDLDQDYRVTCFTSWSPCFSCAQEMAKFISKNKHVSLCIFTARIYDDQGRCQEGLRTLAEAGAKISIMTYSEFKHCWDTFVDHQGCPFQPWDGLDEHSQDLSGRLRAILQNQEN
Sequence of Mu-type opioid receptor (P35372 whole entry): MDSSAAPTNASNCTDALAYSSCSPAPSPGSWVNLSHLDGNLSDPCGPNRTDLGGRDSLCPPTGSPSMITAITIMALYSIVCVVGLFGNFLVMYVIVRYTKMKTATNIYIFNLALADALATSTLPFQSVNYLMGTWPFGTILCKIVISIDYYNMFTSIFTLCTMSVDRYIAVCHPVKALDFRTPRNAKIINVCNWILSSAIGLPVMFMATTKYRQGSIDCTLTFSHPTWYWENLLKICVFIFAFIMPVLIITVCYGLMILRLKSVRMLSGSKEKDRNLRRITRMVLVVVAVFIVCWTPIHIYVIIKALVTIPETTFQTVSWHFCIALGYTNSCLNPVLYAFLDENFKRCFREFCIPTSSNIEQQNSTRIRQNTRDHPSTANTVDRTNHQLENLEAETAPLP
Sequence of Delta-type opioid receptor (P41143 whole entry): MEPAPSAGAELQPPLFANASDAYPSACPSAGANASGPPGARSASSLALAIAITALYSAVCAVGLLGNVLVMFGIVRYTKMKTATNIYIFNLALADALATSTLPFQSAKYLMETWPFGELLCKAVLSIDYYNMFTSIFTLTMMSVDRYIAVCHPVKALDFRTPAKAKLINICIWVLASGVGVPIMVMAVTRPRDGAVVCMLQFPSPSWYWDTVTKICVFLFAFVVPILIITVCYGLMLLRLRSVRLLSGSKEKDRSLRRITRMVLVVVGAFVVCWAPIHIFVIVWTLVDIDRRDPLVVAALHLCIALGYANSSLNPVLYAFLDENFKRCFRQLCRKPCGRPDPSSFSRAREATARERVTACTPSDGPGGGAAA
Sequence of DNA dC->dU-editing enzyme APOBEC-3A (P31941 whole entry): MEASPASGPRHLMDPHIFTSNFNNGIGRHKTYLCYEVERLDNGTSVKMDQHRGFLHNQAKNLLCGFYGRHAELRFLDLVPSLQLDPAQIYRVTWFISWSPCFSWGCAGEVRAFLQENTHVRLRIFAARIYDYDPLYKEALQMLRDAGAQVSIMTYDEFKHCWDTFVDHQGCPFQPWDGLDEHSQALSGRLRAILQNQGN
Sequence of FAD-linked sulfhydryl oxidase ALR (P55789 whole entry): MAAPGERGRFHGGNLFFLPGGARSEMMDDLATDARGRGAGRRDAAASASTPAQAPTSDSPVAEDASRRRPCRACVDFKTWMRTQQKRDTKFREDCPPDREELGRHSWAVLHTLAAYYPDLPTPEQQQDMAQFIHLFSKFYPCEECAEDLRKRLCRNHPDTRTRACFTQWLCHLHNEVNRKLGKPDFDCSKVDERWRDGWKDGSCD
Sequence of Dual specificity protein phosphatase 3 (P51452 whole entry): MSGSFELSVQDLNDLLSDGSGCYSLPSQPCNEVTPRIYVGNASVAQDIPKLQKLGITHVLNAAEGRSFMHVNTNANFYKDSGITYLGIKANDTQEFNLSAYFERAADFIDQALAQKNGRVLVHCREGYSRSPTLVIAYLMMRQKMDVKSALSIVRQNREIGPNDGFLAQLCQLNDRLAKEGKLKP

CC1(OC(=O)C2CCCC2)C(=O)C=C2C=C(c3ccsc3)N(C3CCCC3)C=C2C1=O (stereo not given)
EC50 [1]: > 100 µM (inactive)

C=CCn1c(N)c(C(=O)N2CCN(C)CC2)sc1=S
IC50 [2]: 77.7 µM (active)
IC50 [3]: 61.2 µM (active)

O=C(Cn1cc(C(F)(F)F)cc(Cl)c1=O)NCCc1ccc(Cl)cc1Cl
EC50 [4]: 7.63 µM (active)

Cc1ccc(S(=O)(=O)NCc2ccc(C(=O)NCCN(Cc3ccccc3)Cc3ccccc3)cc2)cc1
IC50 [5]: 16.2 µM (inactive)
IC50 [6]: > 32 µM (inactive)
IC50 [7]: 7.47 µM (active)
IC50 [8]: > 32 µM (inactive)

COc1cc(/C=C2/SC(=S)N(Cc3ccccc3)C2=O)cc(Cl)c1O
EC50 [9]: 5.2 µM (active)
EC50 [10]: 5.86 µM (active)
EC50 [11]: 1.5 µM (active)
EC50 [12]: 5.31 µM (active)
EC50 [13]: > 150 µM (not active)
IC50 [14]: > 100 µM (inactive)

CC(C)CC[n+]1ccccc1C=Cc1ccc(N(C)C)cc1
CC50 [15]: > 40 µM (active)
IC50 [16]: 6.84 µM (active)
EC50 [17]: 15.5 µM (active)
IC50 [18]: 19.3 µM (active)
IC50 [19]: > 80 µM (inactive)
AC50 [20]: 1.36 µM (active)
EC50 [21]: 22.8 µM (inconclusive)
EC50 [22]: 3.6 µM (active)
EC50 [23]: > 150 µM (inconclusive)

CCC(c1nnnn1Cc1ccc2c(c1)OCO2)N1CCN(c2ccc(F)cc2)CC1 (stereo not given)
IC50 [24]: > 50 µM (inactive)
IC50 [14]: > 100 µM (inactive)
